Assay [1] deals with HIV-1 transcription in CEM-GFP cells. Put plainly: cells. It counts as cell-based. The note with it: for IC50: Human immunodeficiency virus 1, CEM-GFP, 24 h, read-out: Inhibition of HIV-1 Transcription in CEM-GFP cells (IC50, μM).
In assay [2] the test system is CEM cells. Nature of the assay: Toxicity by propidium iodide fluorescence in CEM-GFP cells. The note with it: Homo sapiens, CCRF-CEM, 3 µM to 45 µM, 24 h. It counts as cell-based.
Assay [3] deals with T1, recombinant PP1α (Oryctolagus cuniculus, UniProt P62139).
T1 construct: purchased New England Biolabs, Ipswich, MA
Put plainly: Malachite green dephosphorylation of RVxF-containing hybrid pRb peptides by PP1α. Format: biochemical. The note with it: peptide as substrate, no compound added. From the text: Here, we analyzed the effect of 1H4 on the binding of the Tat RVxF sequence to PP1 using hybrid PP1 substrates containing a substrate phosphopeptide linked to RVxF-containing sequences derived from Tat or NIPP1. As the substrate phosphopeptide, we used a retinoblastoma protein-derived HIPR(pS)[…] peptide (pRb) that is efficiently dephosphorylated by PP1 but not by the enzymatically-related PP2A [13]. The pRb peptide was linked to an extended RVxF-containing sequence derived from Tat ([…]) (pRb-Tat peptide) or the central domain of NIPP1 ([…]). To visualize the interaction between pRb-Tat and PP1 we built a computational model of the pRb-Tat peptide with PP1 complex (described in Materials and Methods). Based on this model, the pRb-Tat peptide is able to bind to the RVxF- accommodating groove of PP1 and, at the same time, to reach the active site of PP1 without any tension (Fig. 5A, green spheres; Fig. 5B, gray sticks). The pRb-Tat peptide was efficiently dephosphorylated by PP1 in vitro (Fig. 5C, V0 = 0.31 µM·min^-1). […] Addition of 1H4 at 3-fold molar excess (480 µM) over pRb-Tat (160 µM) inhibited pRb-Tat dephosphorylation and reduced the rate of dephosphorylation (Fig. 5C, V0 = 0.19 µM·min^−1) to the rate of pRb-Tat QACA dephosphorylation (Fig. 5C, V0 = 0.17 µM⋅min^−1). […] To further investigate the effect of 1H4 on the dephosphorylation of the pRb-Tat peptide, we analyzed the initial velocity versus pRb-Tat peptide substrate concentration plots. […] This was expected because the dephosphorylation site and the RVxF-containing sequence were fused into one hybrid substrate and 1H4 interferes with the binding of this substrate to PP1.
Figure 5 1H4 compound competes with RVxF motif. A. Superimposition of pRb-Tat peptide on the complex of PP1 with Spinophilin. PP1 surface is colored after the atom types. The spinophilin peptide is shown as magenta ribbon and the pRb-Tat peptide as orange ribbon. The Val25 and Phe27 residues of pRb-Tat and the Ile449 and Phe 451 residues of Spinophilin are shown as sticks. The 2-(N-morpholino)-ethanesulfonic acid bound in the active site of PP1 is shown in green spheres. The phosphorylated Ser6 residue of pRb-Tat peptide is shown as sticks. B. Phosphorylated Ser 6 residue binds to the active site of PP1. Comparative superimposition of pRb-Tat peptide over the crystal structure of MES bound in the active site of PP1. Catalytic resides are shown as sticks. MES is shown as green sticks, and the phosphorylated Ser6 residue of pRb-Tat peptide is shown as orange sticks. The pRb-Tat peptide is shown as orange ribbon. C. 1H4 inhibits kinetics of pRb-Tat peptide dephosphorylation by PP1α. Recombinant PP1α was assayed with pRb-Tat (WT or QACA mutant, 120 µM) in the absence or presence of 1H4 as indicated. The reactions were stopped at indicated time points and the phosphate release was quantified by malachite green assay. Initial velocity was calculated by linear regression in Prism. D. 1H4 inhibits kinetics of pRb-cdNIPP dephosphorylation by PP1α. Recombinant PP1α was assayed with pRb-cdNIPP1 in the absence or presence of 1H4 as indicated. Mutant pRb cdNIPP1 pA-RATA was used as negative control. The reactions were stopped at indicated time points and the phosphate release was quantified by malachite green assay. Initial velocity was calculated by linear regression in Prism. […] Initial rates of pRb-Tat peptide dephosphorylation by PP1α were assayed at the indicated concentrations of the substrate in the absence or presence of 300 µM 1H4 or non-HIV-1 inhibitory 1G3. The amount of the released phosphate was quantified with malachite green.
Malachite green dephosphorylation assays were carried out with the Ser/Thr phosphatase assay kit (Upstate, Lake Placid, NY) using recombinant PP1α (New England Biolabs, Ipswich, MA). […]

Assay [4] concerns the target PP1α (Homo sapiens, UniProt P62136).

Several values for one entry are separate records, joined by “and”; a condition that tells them apart may be missing. Equal entries are not always repeated. Square brackets hold non-standard residues; d marks the D form. Ends that are not written are not given here. pS = N[C@@H](COP(=O)(O)O)C(=O)O

T1 sequence (P62139 whole entry): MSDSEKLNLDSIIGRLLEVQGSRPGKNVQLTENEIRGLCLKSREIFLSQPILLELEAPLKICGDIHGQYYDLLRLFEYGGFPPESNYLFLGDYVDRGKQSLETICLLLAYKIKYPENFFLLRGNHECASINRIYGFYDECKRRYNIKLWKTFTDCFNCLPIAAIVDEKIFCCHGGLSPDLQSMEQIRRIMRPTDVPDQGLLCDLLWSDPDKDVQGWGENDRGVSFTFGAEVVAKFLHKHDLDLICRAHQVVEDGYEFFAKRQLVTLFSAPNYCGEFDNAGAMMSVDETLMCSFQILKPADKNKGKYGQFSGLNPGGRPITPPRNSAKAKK
PP1α, sequence (P62136 whole entry): as the sequence (P62139 whole entry) above

For orientation: IC50 means the concentration at which inhibition is half-maximal. With `CCC(c1nnc(SCC(=O)Nc2ncc(-c3ccc(F)cc3)s2)n1Cc1ccccc1)N(C)C` (stereo not shown) [T5251659], the half-maximal inhibitory concentration (IC50) came out at 10 µM in assay [1] and 6 µM in assay [2].

With “HIPR(pS)PYKFPSSPLRKKCCFHCQACAITK (HIPR[pS]PYKFPSSPLRKKCCFHCQACAITK; cysteine pairing not given here) [pRb-Tat QACA]”, the “Initial velocity V0 of peptide dephosphorylation by PP1α” value (“Initial velocity V0 … by PP1α” for short) in assay [3] was 0.17 µM/min and 0.17 ± 0.02 µM/min.

In the case of `O=S(=O)(Nc1ccc(S(=O)(=O)N2CCC(Cc3ccccc3)CC2)cn1)c1ccccc1` [T5481237], the IC50 in assay [1] is 15 µM; in assay [2], 20 µM.

For “HIPR(pS)PYKFPSSPLRKKCCFHCQVCFITK [pRb-Tat]”, in assay [3], the “Initial velocity V0 … by PP1α” value was 0.31 µM/min and 0.31 ± 0.03 µM/min.

Take `CCN(CC)S(=O)(=O)c1ccc2c(c1)nc(CCC(=O)N(C)c1ccc(C(F)(F)F)cc1)n2C` [T5326526]: the IC50 was 15 µM in assay [1] and 10 µM in assay [2].

On to “HIPR[pS]PYKFPSSPLRAAAAASRATASED [pRb-NIPP1 pA-RATA]”, for which the “Initial velocity V0 … by PP1α” value in assay [3] was determined as 0.004 µM/min; in assay [3] (listed as pRb-cdNIPP1 pA-RATA), 0.017 ± 0.004 µM/min.

On to “HIPR[pS]PYKFPSSPLRKRKRKNSRVTFSED [pRb-NIPP1]”, for which the “Initial velocity V0 … by PP1α” value was 0.56 µM/min in assay [3] and 0.56 ± 0.03 µM/min in assay [3] (listed as pRb-cdNIPP1).

In the case of `O=C(CNC(=O)c1ccccc1SCC(=O)NC12CC3CC(CC(C3)C1)C2)Nc1ccc(Cl)cc1` [T5498680], the IC50 in assay [1] and in assay [2] was 5 µM in each case.

In the case of “HIPR[pS]PYKFPSSPL [pRb, reference compound]”, in assay [3], the “Initial velocity V0 … by PP1α” value worked out at 0.014 µM/min.

For `CC(OC(=O)c1ccccc1SCC(=O)Nc1ccc2c(c1)OCO2)C(=O)NCCC1=CCCCC1` (stereo not shown) [T5369370], the IC50 in assay [1] was 10 µM; in assay [2], 15 µM.

Consider `CN(C1CCCCC1)S(=O)(=O)c1ccc(NC(=O)COc2ccccc2-c2ccccc2)cc1` [T5551920], for which the IC50 in assay [1] and in assay [2] was 15 µM throughout.

Take `Nc1c2c(nc3ccccc13)CCCC2` [9-amino-1,2,3,4-tetrahydroacridine, reference compound]: the “Activity as HIV-1 transcription inhibitor (in words)” value in assay [1] (data not shown, assay not specified) was “not active”.

B1: pRb-NIPP1 peptide (peptide)
peptide: HIPR[pS]PYKFPSSPLRKRKRKNSRVTFSED
With B1, in assay [4], the initial velocity V0 of dephosphorylation of the peptide by recombinant PP1α in the presence of the small molecule 1H4 amounted to 0.37 µM⋅min^−1 and the initial velocity V0 of dephosphorylation of the peptide by recombinant PP1α in vitro (malachite green) was found to be 0.56 µM⋅min^−1.

The values are drawn from paper PMC3387161, “Small Molecules Targeted to a Non-Catalytic “RVxF” Binding Site of Protein Phosphatase-1 Inhibit HIV-1” (PLoS ONE, 2012).
